Experimental data reported in paper PMC9494960, “Antiamoebic Activity of Imidazothiazole Derivatives against Opportunistic Pathogen Acanthamoeba castellanii” (Antibiotics, 2022).

Key:
[1] = tested on: A. castellanii-mediated HeLa cell death; experiment: Amoeba-mediated host cell cytotoxicity (cytopathogenicity assay, LDH); assay type: cell-based, Acanthamoeba castellanii; details: amoebae pre-treated with 50 µM for 2 h; HeLa overnight; negative control amoeba + cells 100%
Method: Cytopathogenicity assays were accomplished to determine the amoeba-mediated host cell death. A. castellanii (5 × 10^5) trophozoites were treated with 50 µM of the tested molecules at 30 °C for 2 h. Culture containing pre-treated amoebae was centrifuged at 3000× g for 5 min and pellet was re-suspended in 200 µL of serum free RPMI. The whole assay volume with pre-treated amoebae was transferred to HeLa cell monolayer cultured in a 96 well plates. Next, the plates were kept for overnight at 37 °C with 95% humidity and 5% CO2. Finally, amoeba-mediated host cell cytotoxicity was evaluated indirectly by measuring the amount of LDH enzyme released into cell media by damaged cells, as reported earlier.

[2] = tested on: A. castellanii trophozoites; experiment: Encystation assay; assay type: cell-based, Acanthamoeba castellanii; details: 50 µM, 16% glucose, 30 °C, 48–72 h; negative control 100%
Method: Encystation assays were performed to determine the effects of the tested compounds to prevent the differentiation of A. castellanii trophozoites into the cyst form and 50 µM of the tested compounds were utilized. Briefly, A. castellanii (1 × 10^6) trophozoites were incubated with these compounds with 16% filter-sterilized glucose (as encystation medium) at 30 °C 48–72 h. A. castellanii cultured alone in 16% glucose was taken as negative control. After this incubation, 0.1% sodium dodecyl sulfate (SDS) was added to each well and agitated the plate for 20 min. The SDS resistant cysts were enumerated using a haemocytometer and data was recoded.

[3] = tested on: human cell lines; experiment: MTT assay (EC50/CC50 and MNTD90); assay type: cell-based; details: for CC50: 50% effective/cytotoxic concentration (CC50), tested at 12.5–100 µM; for EC90: Maximum Non-Toxic Dose, read-out: MNTD/EC90
[4] = tested on: A. castellanii binding to HeLa cells; experiment: Adhesion assay: amoebae binding to human cells; assay type: cell-based, Acanthamoeba castellanii; details: amoebae pre-treated with 50 µM for 2 h; 60 min on HeLa monolayer
Method: Adhesion assays were performed to determine how the tested molecules affect the binding capability of amoebae to human cells. Firstly, A. castellanii (5 ×10^5) trophozoites were treated with 50 µM of the compounds in serum-free RPMI medium at 30 °C for 2 h. Next, pre-treated amoebae were centrifuged at 3000× g for 5 min and re-suspended the amoeba in 200 µL of RPMI medium. The total assay volume including pre-treated amoeba was transferred to a confluent HeLa cell monolayer cultured in 96-well plates. For control, amoebae trophozoites alone were added to HeLa cell monolayer. The plates were incubated for 60 min at 37 °C with 5% CO2 and 95% humidity and amoebae (unbound) were then counted by haemocytometer. Percent bound amoebae was calculated using the following formula: % amoebae (bound) = 100 − amoebae (unbound)(1)

[5] = tested on: A. castellanii genotype T4 (ATCC 50492) trophozoites; experiment: Amoebicidal assay (Trypan blue exclusion, haemocytometer counting); assay type: cell-based, Acanthamoeba castellanii; details: for Amoebicidal Activity Inhibition % ± SEM: 50 µM concentration, Supplementary Table S1; for amoebicidal effects / antiamoebic activity against A. castellanii: 50 µM, 24 h, 30 °C; for IC50: tested at 12.5, 25, 50 and 100 µM against A. castellanii
Method: A. castellanii genotype T4 (ATCC 50492) trophozoites were used in this study. The amoebae were axenically cultivated at 30 °C in T-75 cm^3 culture flask using a proteose-peptone yeast extract-glucose (PYG) broth culture. Upon confluency, amoeba cultured flask was placed on ice for 10 min followed by gently tapping to dislodge the adhered trophozoites. Next, culture was centrifuged at 3000× g for 5 min. The supernatant was discarded and the pellet was re-suspended in 1 mL of Roswell Park Memorial Institute (RPMI) media. Finally, amoebae were counted via haemocytometer microscopically and the desired initial inoculum (5 × 10^5) was adjusted and used in different assays. Different molecules were tested against A. castellanii to examine their antiamoebic effects as previously reported. Briefly, A. castellanii (5 × 10^5) were incubated with 50 µM of the tested compounds for 24 h at 30 °C with a final assays volume of 0.5 mL in a 24-well plate. For controls, amoebae cultured in RPMI alone and with 0.25% sodium dodecyl sulfate (SDS) was taken as negative and positive control, respectively. Finally, each well was stained with Trypan blue (0.1%) and viable amoebae trophozoites were enumerated by haemocytometer. In some trails, these compounds were tested at different concentrations (12.5, 25, 50 and 100 µM) to determine their 50% inhibitory concentration (IC50) against A. castellanii.

[6] = tested on: V600E-B-RAF; set-up: method as in PMID 32962435; details: cited from earlier work
[7] = tested on: C-RAF; set-up: method as in PMID 32962435; details: cited from earlier work
[8] = tested on: A. castellanii; set-up: method as in PMID 34959694; details: cited from earlier work

| SMILES | amoeba-mediated host cell death reduced up to [1] [%] | encystation blocked (trophozoites prevented from converting into cysts) [2] [%] | CC50 [3] [µM] | EC90 [3] [µM] | inhibition of amoebae binding to human cells [4] [%] | Amoebicidal Activity Inhibition % ± SEM [5] | amoebicidal effects / antiamoebic activity against A. castellanii [5] [%] | IC50 [5] [µM] | inhibitory effects against V600E-B-RAF kinase [6] | inhibitory effects against C-RAF kinase [7] | concentration that prevented excystment in A. castellanii [8] [µM] |
| --- | --- | --- | --- | --- | --- | --- | --- | --- | --- | --- | --- |
| O=C(NCCNc1nccc(-c2c(-c3ccc(F)cc3)nc3sccn23)n1)c1cc(C(F)(F)F)cc(C(F)(F)F)c1 [Compound 1i] | 45 | 60 | 1410 | 90.9 | 42 | 55.05% ± 1.25% | 55 | 43.1 |  |  |  |
| COc1cccc(-c2nc3sccn3c2-c2ccnc(NCCNC(=O)Nc3cccc(C(F)(F)F)c3)n2)c1 [Compound 1m] | 33 | 72 | 313 | 29.5 | 61 | 69.17% ± 2.39% | 70 | 30 | modest inhibitory effects | modest inhibitory effects |  |
| O=C(NCCNc1nccc(-c2c(-c3cccc(O)c3)nc3sccn23)n1)c1ccc(N2CCOCC2)c(C(F)(F)F)c1 [Compound 1zb] | 46 | 78 | 434 | 24.1 | 55 | 67.00% ± 3.19% | 67 | 32.4 |  |  |  |
| CNCC(=O)OCc1cccnc1N(C)C(=O)OC(C)[n+]1cnn(C[C@](O)(c2cc(F)ccc2F)[C@@H](C)c2nc(-c3ccc(C#N)cc3)cs2)c1.O=S(=O)([O-])O (stereo partly drawn) [isavuconazonium sulfate] |  |  |  |  |  |  |  |  |  |  | 136 |
